Where “and” joins values, the source holds several entries; their conditions need not be identical. Equal entries are not always repeated. No end group written: not given here.
How the values were obtained:
[1] = tested on: EGFP reporter gene in EGFP-U2OS, EGFP-HEK, EGFP-JURKAT cells; assay: EGFP reporter gene disruption from CPP delivery of CAS9:sgRNA (flow cytometry); type: cell-based, human; settings: for reduction of EGFP-positive cells: EGFP-JURKAT; for decrease in EGFP expression: CAS9:gRNA 50 nM, CPP:cargo 20:1; for reduction of EGFP-expressing cells / loss of EGFP expression: JURKAT;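 as to all read-outs here: cells carrying one integrated EGFP reporter received peptide-complexed CAS9 preloaded 1:1 with EGFP sgRNA, cultured 72 h, then EGFP level read by flow cytometry, lipofectamine 2000 and RNAiMAX as positive controls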
Experimental: Efficacy of CPP-mediated delivery was quantified using a well-established CAS9-induced gene disruption method (Fu et al, 2013, supra), by targeting a specific site in the exogenous EGFP gene reporter in three human cell lines expressing EGFP (GFP-U2OS, EGFP-HEK, EGFP-JURKAT).
Stock solutions of amphipathic peptides were prepared at 1 mg/mL in distilled water and sonicated for 10 min. CAS9 protein was preloaded with purified EGFP sgRNA at a molar ratio of 1:1 and incubated for 10 min prior to forming complexes with the peptides. Preloaded CAS9/gRNA complexes (10 nM, 25 nM, and 50 nM) were mixed with CPPs at 5:1, 10:1 and 20:1 molar ratios of CPP to cargo and incubated for 30 min at 37° C. prior to cell transfection.
Cell line containing a single integrated EGFP reporter gene (GFP-U2OS, EGFP-HEK and EGFP-JURKAT) were cultured in Dulbecco's Modified Eagle's Medium (DMEM), supplemented with 2 mM glutamine, 1% antibiotics (streptomycin 10,000 μg/mL, penicillin, 10,000 IU/mL) and 10% (w/v) foetal calf serum (FCS) at 37° C. in a humidified atmosphere containing 5% CO2. A total of 150,000 cells seeded in a 35 mm dish the day prior to transfection were grown to 50-60% confluence and overlaid with 200 μl of preformed complexes, incubated for 3-5 min, then 400 μl of DMEM was added. After 30 min incubation at 37° C., 1 mL of fresh DMEM containing 16% FCS was added to reach a final FCS concentration of 10%, without removing the overlay of CPP/CAS9-gRNA complexes. Cells were returned to the incubator for 72 hours.
CAS9-induced double-strand break formation was analyzed using flow cytometry by monitoring level of EGFP expression. […] Both lipofectamine 2000 and RNAiMAX delivery methods were used as positive controls.

[2] = tested on: EGFP-U2OS, EGFP-HEK, EGFP-JURKAT cells; assay: Toxicity of CPP/CAS9/gRNA complexes (MTT assay); type: cell-based; settings: three cell lines; concentrations up to 100 nM; 24 h
Experimental: The robust EGFP disruption observed in the three cell lines was found not to be the result of cellular toxicity. […] A total of 30,000 cells seeded in 24-well plates the day prior to transfection were incubated with increasing concentrations of CPP/CAS9/gRNA (complexed at a 10:1 or 20:1 molar ratio of CPP to preloaded CAS9/gRNA complex) ranging from 1 to 200 nM for 30 min prior to addition of medium to reach a final 10% concentration of FCS. Cytotoxic response was measured 24 hours later by colorimetric MTT assay (Sigma, Germany). For MTT assay, cell culture medium was removed and replaced with PBS containing 2.5 mg/ml MTT for 4 hours. Results correspond to the average of 3 separate experiments. […] Viability was reduced by less than 10% at 200 nM. In contrast, at […] for Lipofectamine 2000 or RNAiMAX, between 60-70% and 20-25% cell death was observed, depending on cell line. Moreover, both lipid methods appeared to be highly toxic on JURKAT cells, inducing 75% (lipofectamine 2000) or 45% (RNAiMAX) cell death.

[3] = tested on: endogenous EMX1 gene in U2OS, JURKAT and K562 cells; assay: EMX1 gene editing from CPP delivery of CAS9/gRNA (T7E1 assay); type: cell-based, human
Experimental: RNAiMAX delivery was used as a positive control as it was previously reported to show better results than Lipofectamine 2000 (Zuris et al., 2015, supra). […] Cells were returned to the incubator for 72 hours.

[4] = tested on: endogenous EMX1 and exogenous EGFP reporter genes in GFP-U2OS, EGFP-JURKAT cells; assay: Delivery of multiple RGEN/gRNA complexes: EMX1 and EGFP editing; type: cell-based, human
Experimental: RNAiMAX delivery was used as positive control. Cells were treated as described previously and CAS9-induced NHEJ analyzed 72 hr after transfection. […] The deletion (indel) frequency in the EMX1 gene was quantified using the T7E1 assay and loss of EGFP expression was monitored by flow cytometry. Data for on-target mutations induced by RGEN/gRNA are reported as an average of 3 separate experiments.

[5] = tested on: endogenous EMX1, AAVS and HPRT genes in U2OS and Human (H9) embryonic stem cells; assay: Delivery of multiple RGEN:gRNA complexes: EMX1, AAVS, HPRT editing in U2OS and H9 ES cells (T7E1); type: cell-based
Experimental: (§1) RNAiMAX delivery method was used as a positive control.
(§2) U2OS cells were treated as described previously. H9 embryonic stem cells were cultured in Dulbecco's modified Eagle's medium with 4 mM L-glutamine adjusted to contain 1.5 g/L sodium bicarbonate and 4.5 g/L glucose and supplemented with 0.1 mM 2-mercaptoethanol, 85%; and 15% ES-Cell Qualified fetal bovine serum. […] CAS9-induced double-strand break formation followed by repair through NHEJ was analyzed 72 hr after transfection by T7E1 assay and quantified using Fragment Analyzer System. The deletion (indel) frequencies in EMX1, AAVS and HPRT genes were quantified using T7E1 assay. Data for on-target mutations induced by RGEN:gRNA are reported as an average of 3 separate experiments.

[6] = tested on: endogenous EMX1, AAVS and HPRT genes in Mouse (ESF-158) embryonic stem cells; assay: Delivery of multiple RGEN:gRNA complexes: EMX1, AAVS, HPRT editing in mouse ES cells (T7E1); type: cell-based
Experimental: as §1, §2

[7] = CPP/CAS9 and CPP/CAS9:gRNA particle size, polydispersity, zeta potential (Zetasizer 4); type: physicochemical
Experimental: The CPP/CAS9 and CPP/CAS9/sgRNA particles were further characterized; the mean size, polydispersity and zeta potential were measured with Zetasizer 4 apparatus (Malvern Ltd). […] The mean size and the polydispersity of the CCP/CAS9 and CCP/CAS9:gRNA complexes were determined at 25° C. for 3 min per measurement and zeta potential was measured with Zetasizer 4 apparatus (Malvern Ltd).

[8] = tested on: hPD1 gene in human T cells; assay: hPD1 gene editing in primary human T cells (T7E1 assay); type: cell-based
Experimental: T cells were isolated from PBMCs (2 different donors) using anti-CD3/anti-CD28 antibodies bound to paramagnetic beads (Dynabeads ClinExVivo CD3/CD28, Invitrogen) at a ratio of 3:1 (beads:cells). The cells and beads were co-incubated for 2 hours at room temperature and CD3′ cell enrichment was performed using Dynal ClinExVIVO MPC magnet (Thermo Fisher). The anti-CD3/anti-CD28 paramagnetic beads were removed, washed and concentrated. Cells in the CD3′ fraction were resuspended in activation media at a concentration of 1×10^6 cells/ml with AIM-V medium (Thermo Fishers) supplemented with 10% fetal calf serum, 300 IU/ml IL2 and 50 ng/ml OKT3 (MuromonAB-CD3) for two days.
Cells were transfected by electroporation with CD-19 plasmid or gRNA/CAS9 (5 μg/10 μg) using a Nucleofector 2b (Lonza, Germany) with the Amaxa Human T cells Nucleofector Kit, VPA-1002 (Lonza, Germany). 5×10^6 cells were washed twice with DPBS by centrifuging at 800 rpm for 5 minutes and resuspended in 100 ^l transfection buffer, and then transferred into the electroporation cuvette. An optimized program selected for both high transfection and high efficiency on T cells was used. After electroporation, cells were resuspended in 500 ^l pre-warmed AIM-V medium containing 10% FBS and incubated at 37° C. in 5% CO2. The transfection efficiency was evaluated after 48 hr by flow cytometry or T7E1 assay.
As control, CAS9 loaded with gRNA targeting GFP was used.
Cells were returned to the incubator for 72 hours. CAS9-induced double-strand break followed by repair through non-homologous end joining (NHEJ) was analyzed by either the T7E1 assay or using the Genome Cleavage Detection kit (GCD Thermo Fisher) and quantified using Fragment Analyzer System. The indel frequency in the target gene was quantified using the T7E1 assay. The cultures were expanded and analyzed for viability and PD1 levels every 10 days. T cell expansion medium contained AIM V medium, supplemented with 5% heat-inactivated human AB Serum, 1% Gluta-Max, and 300 IU/mL IL-2.

[9] = tested on: endogenous hPD1 gene in JURKAT and K562 cells; assay: hPD1 gene editing in T cell lines (T7E1 assay); type: cell-based, human; settings: CAS9/sgRNA 5 μg/10 μg
Experimental: CAS9 protein was preloaded with purified sgRNA at a molar ratio of 1:1 and incubated for 10 min prior to forming complexes with peptides.
5×10^6 cells were washed twice with DPBS by centrifuging at 800 rpm for 5 minutes and resuspended in 100 ^l transfection buffer, and then transferred into the electroporation cuvette. An optimized program selected for both high transfection and high efficiency on T cells was used. After electroporation, cells were resuspended in 500 ^l pre-warmed AIM-V medium containing 10% FBS and incubated at 37° C. in 5% CO2. The transfection efficiency was evaluated after 48 hr by flow cytometry or T7E1 assay.
RNAiMAX delivery method was used as positive control. Cells were either resuspended in or overlaid with 100 μl of preformed complexes, incubated for 3-5 min, and then 300 μl of DMEM was added. […] The indel frequency in the hPD1 gene was quantified using the T7E1 assay.

For `N=C(N)NCCC[C@H](NC(=O)[C@H](CCCNC(=N)N)NC(=O)[C@H](CCCCN)NC(=O)[C@H](CCCNC(=N)N)NC(=O)[C@@H]1CCCN1C(=O)[C@H](Cc1c[nH]c2ccccc12)NC(=O)[C@H](CCC(=O)O)NC(=O)[C@H](CCCNC(=N)N)NC(=O)[C@H](Cc1c[nH]c2ccccc12)NC(=O)[C@H](Cc1c[nH]c2ccccc12)NC(=O)[C@H](CCCNC(=N)N)NC(=O)[C@H](CCC(=O)O)NC(=O)[C@H](Cc1c[nH]c2ccccc12)NC(=O)[C@H](Cc1c[nH]c2ccccc12)NC(=O)[C@H](CCCCN)NC(=O)CCN)C(=O)O` [VEPEP-3b], the “reduction of EGFP-positive cells” value [1] was 87%, the “reduction of number of EGFP-expressing cells” value ([1]; HEK, 1 nM CAS9:gRNA) was 71% and the “decrease in EGFP expression” value ([1]; HEK) was 93%. For the same molecule, the “reduction of EGFP-expressing cells / loss of EGFP expression” value ([1]; 1 nM CAS9:gRNA) was 55%, the “reduction of number of EGFP-expressing cells” value ([1]; U2OS, 1 nM CAS9:gRNA) was 68% and the “decrease in EGFP expression” value ([1]; U2OS) was 92%. The toxicity [2] was “no toxicity”, the “Mean indel Frequency ± S.E.M” value ([3]; JURICAT, CAS9/sgRNA 25 nM) was 69% and 69 ± 8% and the “Mean indel Frequency ± S.E.M” value ([3]; JURKAT, CAS9/sgRNA 50 nM) was 71 ± 5%. For the same molecule, the “Mean indel Frequency ± S.E.M” value ([3]; K562, CAS9/sgRNA 25 nM) was 79% and 79 ± 5%, the “Mean indel Frequency ± S.E.M” value ([3]; K562, CAS9/sgRNA 50 nM) was 81 ± 7% and the “Mean indel Frequency ± S.E.M” value ([3]; U2OS, CAS9/sgRNA 25 nM, 20:1) was 75% and 75 ± 7%. For the same molecule, the “Mean indel Frequency ± S.E.M” value ([3]; U2OS, CAS9/sgRNA 50 nM) was 77 ± 5%, the “Mean indel Frequency ± S.E.M” value ([4]; JURKAT, EGFP) was 84 ± 7% and the “Mean indel Frequency ± S.E.M” value ([4]; JURKAT, EMX1) was 79 ± 7%. The “Mean indel Frequency ± S.E.M” value ([4]; U2OS, EGFP, 25 nM each complex) was 80 ± 5%, the “Mean indel Frequency ± S.E.M” value ([4]; U2OS, EMX1) was 82 ± 6% and the “Mean indel Frequency ± S.E.M” value ([5]; H9, AAVS) was 71 ± 7%. For the same molecule, the “Mean indel Frequency ± S.E.M” value ([5]; H9, EMX1) was 67 ± 6%, the “Mean indel Frequency ± S.E.M” value ([5]; H9, HPRT) was 70 ± 4% and the “Mean indel Frequency ± S.E.M” value ([5]; U2OS, AAVS) was 75 ± 7%. The “Mean indel Frequency ± S.E.M” value ([5]; U2OS, EMX1, 20 nM each complex) was 82 ± 5%, the “Mean indel Frequency ± S.E.M” value ([5]; U2OS, HPRT) was 84 ± 6% and the “Mean indel Frequency ± S.E.M” value ([6]; AAVS) was 79 ± 5%. For the same molecule, the “Mean indel Frequency ± S.E.M” value ([6]; EMX1) was 84 ± 6%, the “Mean indel Frequency ± S.E.M” value ([6]; HPRT) was 85 ± 7% and the PI ([7]; Cas9:gRNA, molar ratio 10/1) was 0.35 ± 0.1. For the same molecule, the Size ([7]; Cas9:gRNA, molar ratio 10/1) was 38 ± 4 nm, the zeta ([7]; Cas9:gRNA, molar ratio 10/1) was 27.0 ± 4 MV and the PI ([7]; Cas9:gRNA, molar ratio 20/1) was 0.37 ± 0.1. For the same molecule, the Size ([7]; Cas9:gRNA, molar ratio 20/1) was 51 ± 5 nm, the zeta ([7]; Cas9:gRNA, molar ratio 20/1) was 25.3 ± 7 MV and the Pt ([7]; Cas9, molar ratio 10/1) was 0.33 ± 0.1. It also gave a zeta ([7]; Cas9, molar ratio 10/1) of 21.0 ± 5 mV, a Size ([7]; Cas9, molar ratio 10/1, 0.9% NaCl) of 45 ± 5 nm and a Pt ([7]; Cas9, molar ratio 20/1) of 0.35 ± 0.1. For the same molecule, the Size ([7]; Cas9, molar ratio 20/1) was 52 ± 5 nm, the zeta ([7]; Cas9, molar ratio 20/1) was 17.0 ± 5 mV and the “formation of stable nanoparticles” value ([7]; with CAS9 and CAS9:gRNA complex, molar ratio 10:1 or 20:1) was “able to form stable nanoparticles”. For the same molecule, the Mean diameter ([7]; with CAS9 and CAS9:gRNA, molar ratio 10:1 or 20:1) was “about 50 nm”.
For “GLWRALWRLLRSLWRLLWKV [CADY, reference compound]”, the “Mean indel Frequency ± s.e.m” value ([8]; Donor 1, CAS9/sgRNA 2.5 μg/5 μg) was 0%, the “Mean indel Frequency ± s.e.m” value ([8]; Donor 1, CAS9/sgRNA 5 μg/10 μg) was 0% and the “Mean indel Frequency ± s.e.m” value ([8]; Donor 2, CAS9/sgRNA 2.5 μg/5 μg) was 0%. For the same molecule, the “Mean indel Frequency ± s.e.m” value ([8]; Donor 2, CAS9/sgRNA 5 μg/10 μg) was 0%, the “mean indel frequency of hPD1 gene” value ([8]; T cells from the two donors, 5 μg/10 μg CAS9/gRNA) was “No editing” and the “reduction of EGFP-positive cells” value [1] was 18%. The “decrease in EGFP expression” value ([1]; HEK) was 42%, the “reduction of EGFP-expressing cells / loss of EGFP expression” value ([1]; 1 nM CAS9:gRNA) was “no change in EGFP expression” and the “decrease in EGFP expression” value ([1]; U2OS) was 33%. For the same molecule, the “loss of EGFP expression” value ([1]; both cell lines (U2OS, HEK), 1 nM CAS9:gRNA) was “no change in EGFP expression”, the “Mean indel Frequency ± s.e.m” value ([9]; JURKAT) was 12 ± 9% and the “Mean indel Frequency ± s.e.m” value ([9]; K562) was 15 ± 9%. The “complex formation with CAS9” value [7] was “did not form any complex”, the PI ([7]; Cas9:gRNA, molar ratio 20/1) was 0.6 and 0.6 ± 0.2 and the Size ([7]; Cas9:gRNA, molar ratio 20/1) was 350±20 nm. The zeta ([7]; Cas9:gRNA, molar ratio 20/1) was 45 ± 8 MV and the “formation of stable particles with preloaded CAS9:gRNA complex” value ([7]; molar ratio 10:1) was “neither CADY nor VEPEP-9 formed stable particles”.

Reference: patent publication US20190211317A1, “PEPTIDES AND NANOPARTICLES FOR INTRACELLULAR DELIVERY OF GENOME-EDITING MOLECULES” (Aadigen, LLC, priority 2016, published 2019)
